Data published in EPA's ToxRefDB 2.

Experiments:
rat [1] = conditions: Subchronic oral toxicity in rodents, sprague dawley, Feed, dose end: 13 week, group: systemic
rat [2] = conditions: Subchronic oral toxicity in rodents, sprague dawley, Gavage/Intubation, dose end: 90 day, group: systemic, systemic / pathology microscopic / stomach / hyperkeratosis + systemic / pathology microscopic / stomach / hyperplasia
rat [3] = conditions: Prenatal developmental toxicity study, sprague dawley, Oral, Gavage/Intubation, dose end: 16 GD
dog [4] = conditions: Subchronic oral toxicity in nonrodent, beagle, Feed, dose end: 90 day, group: systemic
rat [5] = conditions: Subchronic oral toxicity in rodents, sprague dawley, Gavage/Intubation, dose end: 92 day, group: systemic, systemic / pathology microscopic / stomach / thickened
mouse [6] = conditions: Subchronic oral toxicity in rodents, other, Feed, dose end: 90 day, group: systemic
dog [7] = conditions: Chronic toxicity, beagle, Oral, Feed, dose end: 52 week, group: systemic
rabbit = conditions: Prenatal developmental toxicity study, himalayan, Oral, Gavage/Intubation, dose end: 28 GD
rat [8] = conditions: Multigenerational reproductive toxicity study, wistar, Oral, Feed, dose end: 2 generation
mouse [9] = conditions: Carcinogenicity, other, Oral, Feed, dose end: 18 month, group: systemic
dog [10] = conditions: Subchronic oral toxicity in nonrodent, beagle, Feed, dose end: 90 day, group: systemic; remark: listed apart in the source
rat [11] = conditions: Carcinogenicity, wistar, Oral, Feed, dose end: 24 month, group: systemic
rat [12] = conditions: Subchronic oral toxicity in rodents, wistar, Feed, dose end: 90 day, group: systemic, systemic / organ weight / thyroid gland / absolute + systemic / organ weight / thyroid gland / relative to body weight + systemic / …
rat [13] = conditions: Chronic toxicity, wistar, Oral, Feed, dose end: 104 week, group: systemic
[14] = systemic / in life observation / body weight / body weight
[15] = systemic / in life observation / body weight / body weight + systemic / in life observation / food consumption / food efficiency + systemic…
[16] = group: developmental, developmental / developmental malformation / bone / incomplete ossification + developmental / developmental malformation / bone / unossified…
[17] = group: maternal, systemic / in life observation / body weight / body weight gain + systemic / in life observation / food consumption / food consumption + …
[18] = systemic / in life observation / body weight / body weight + systemic / in life observation / food consumption / food consumption + systemic…
[19] = systemic / organ weight / liver / absolute
[20] = systemic / organ weight / liver / absolute + systemic / organ weight / liver / relative to body weight + systemic / pathology microscopic / …
[21] = systemic / clinical chemistry / alkaline phosphatase (alp/alk) / alkaline phosphatase (alp/alk) + systemic / organ weight / liver / absolute…
[22] = group: developmental, developmental / developmental malformation / bone / incomplete ossification
[23] = group: maternal, reproductive / reproductive performance / aborted / aborted + reproductive / reproductive performance / premature delivery / premature …
[24] = group: offspring, systemic / in life observation / body weight / offspring (pup) weight + systemic / in life observation / body weight / offspring (pup) …
[25] = group: offspring, systemic / organ weight / thymus / absolute
[26] = group: parental, systemic / pathology microscopic / liver / degeneration + systemic / pathology microscopic / liver / hypertrophy
[27] = group: reproductive, reproductive / reproductive performance / implantations / implantations
[28] = systemic / in life observation / body weight / body weight + systemic / organ weight / liver / absolute + systemic / organ weight / liver / …
[29] = systemic / hematology / blood clotting / blood clotting - prothrombin time
[30] = systemic / clinical chemistry / alanine aminotransferase (alt/sgpt) / alanine aminotransferase (alt/sgpt) + systemic / clinical chemistry / …
[31] = systemic / organ weight / thyroid gland / absolute + systemic / pathology microscopic / thyroid gland / hyperplasia + systemic / pathology …

O=c1[nH]sc2ccccc12 [1,2-Benzisothiazolin-3-one]
LEL (rat [1]; [14]): 69 mg/kg/day | LOAEL (rat [1]; [14]): 69 mg/kg/day | NEL (rat [1]; [15]): 15.3 mg/kg/day | NOAEL (rat [1]; [15]): 15.3 mg/kg/day | LEL (rat [2]): 10 mg/kg/day | LOAEL (rat [2]): > 10 mg/kg/day | NOAEL (rat [2]): ≥ 10 mg/kg/day | LOAEL (rat [3]; [16]): 100 mg/kg/day | NEL (rat [3]; [16]): 10 mg/kg/day | NOAEL (rat [3]; [16]): 40 mg/kg/day | LEL (rat [3]; group: developmental, developmental / developmental malformation / bone / unossified): 40 mg/kg/day | LOAEL (rat [3]; group: maternal, systemic / in life observation / body weight / body weight gain + systemic / in life observation / food consumption / food consumption): 100 mg/kg/day | NEL (rat [3]; [17]): 10 mg/kg/day | NOAEL (rat [3]; [17]): 40 mg/kg/day | LEL (rat [3]; group: maternal, systemic / in life observation / clinical signs / abnormal respiratory sounds): 40 mg/kg/day | LOAEL (dog [4]; systemic / in life observation / body weight / body weight + systemic / in life observation / food consumption / food consumption): 89 mg/kg/day | LEL (dog [4]; [18]): 89 mg/kg/day | NEL (dog [4]; [18]): 38 mg/kg/day | NOAEL (dog [4]; [18]): 38 mg/kg/day | LEL (rat [5]): 10 mg/kg/day | LOAEL (rat [5]): 10 mg/kg/day | NEL (rat [5]): < 10 mg/kg/day | NOAEL (rat [5]): < 10 mg/kg/day

O=C(Nc1ccccc1-c1ccc(Cl)cc1)c1cccnc1Cl [Boscalid]
LEL (mouse [6]; [19]): 42 mg/kg/day | NEL (mouse [6]; [19]): < 42 mg/kg/day | LOAEL (mouse [6]; [20]): 788 mg/kg/day | NOAEL (mouse [6]; [20]): 197 mg/kg/day | LOAEL (dog [7]; systemic / clinical chemistry / alkaline phosphatase (alp/alk) / alkaline phosphatase (alp/alk) + systemic / organ weight / liver / absolute): 57.4 mg/kg/day | LEL (dog [7]; [21]): 57.4 mg/kg/day | NEL (dog [7]; [21]): 21.8 mg/kg/day | NOAEL (dog [7]; [21]): 21.8 mg/kg/day | LEL (rabbit; [22]): 1000 mg/kg/day | LOAEL (rabbit; [22]): > 1000 mg/kg/day | NEL (rabbit; [22]): 300 mg/kg/day | NOAEL (rabbit; [22]): ≥ 1000 mg/kg/day | LEL (rabbit; [23]): 1000 mg/kg/day | LOAEL (rabbit; [23]): 1000 mg/kg/day | NEL (rabbit; [23]): 300 mg/kg/day | NOAEL (rabbit; [23]): 300 mg/kg/day | LOAEL (rat [8]; [24]): 124 mg/kg/day | NOAEL (rat [8]; [24]): 12.3 mg/kg/day | LEL (rat [8]; [25]): 12.3 mg/kg/day | NEL (rat [8]; [25]): < 12.3 mg/kg/day | LOAEL (rat [8]; group: parental, systemic / pathology microscopic / liver / degeneration): 1030 mg/kg/day | NEL (rat [8]; [26]): 10.1 mg/kg/day | NOAEL (rat [8]; [26]): 101 mg/kg/day | LEL (rat [8]; group: parental, systemic / pathology microscopic / liver / hypertrophy): 101 mg/kg/day | LEL (rat [8]; [27]): 10.7 mg/kg/day | LOAEL (rat [8]; [27]): > 1060 mg/kg/day | NEL (rat [8]; [27]): < 10.7 mg/kg/day | NOAEL (rat [8]; [27]): ≥ 1060 mg/kg/day | LOAEL (mouse [9]; [14]): 331 mg/kg/day | NEL (mouse [9]; [28]): 13 mg/kg/day | NOAEL (mouse [9]; [28]): 65 mg/kg/day | LEL (mouse [9]; systemic / in life observation / body weight / body weight + systemic / organ weight / liver / relative to body weight): 65 mg/kg/day | LOAEL (dog [10]; [21]): 78.1 mg/kg/day | NOAEL (dog [10]; [21]): 7.6 mg/kg/day | LEL (dog [10]; [29]): 8.1 mg/kg/day | NEL (dog [10]; [29]): < 8.1 mg/kg/day | NEL (rat [11]; systemic / in life observation / mortality / mortality + systemic / in life observation / body weight / body weight + systemic / in life …): 1020 mg/kg/day | LOAEL (rat [11]; systemic / pathology microscopic / thyroid gland / hyperplasia + systemic / pathology microscopic / thyroid gland / hypertrophy): 116 mg/kg/day | NOAEL (rat [11]; systemic / pathology microscopic / thyroid gland / hyperplasia + systemic / pathology microscopic / thyroid gland / hypertrophy + systemic…): 23 mg/kg/day | LEL (rat [12]): 137 mg/kg/day | LOAEL (rat [12]): 137 mg/kg/day | NEL (rat [12]): 34 mg/kg/day | NOAEL (rat [12]): 34 mg/kg/day | LEL (rat [13]; [30]): 5.9 mg/kg/day | NEL (rat [13]; [30]): < 5.9 mg/kg/day | LOAEL (rat [13]; [31]): 110 mg/kg/day | NOAEL (rat [13]; [31]): 21.9 mg/kg/day
